Patent publication US6919208B2, “Methods and compositions for enhancing the delivery of a nucleic acid to a cell” (The Children's Hospital of Philadelphia, priority 2000, dated 2005)
Read-outs that look alike come from different tables or passages of the source.

Assays:
A10 cells [1] = tested on: A10 cells
Description: A10 cells were grown on native type I collagen containing 0, 15 and 50 micrograms per milliliter of Tenascin C. The cells were transfected with p-EGFP-N3 (green fluorescent protein) plasmid DNA.

A10 cells [2] = experiment: p-EGFP-N3 (GFP) plasmid transfection of A10 cells on native type I collagen with cytochalasin D added after lipofection; assay type: cell-based, Rat; details: 1 nanomolar
Description: A10 cells were grown on native type I collagen. […] Immediately after lipofection, cytochalasin D at a final concentration of 1 nanomolar was either added to cells for thirty minutes, added to cells for an overnight incubation or not added at all (control). The fluorescence of control cells, cells treated with cytochalasin D for thirty minutes, and cells treated with cytochalasin D for an overnight incubation (FIGS. 6A, 6B and 6C, respectively) was assessed. Bright field micrographs were also taken of the control cells, cells treated with cytochalasin D for thirty minutes, and cells treated with cytochalasin D for an overnight incubation (FIGS. 7A, 7B and 7C, respectively).

Compound | cell morphology (bright field micrograph) (A10 cells [1]) | transfection (GFP expression), dose dependence (A10 cells [1]; 0, 15 and 50 micrograms per milliliter in native type I collagen, 24 h after transfection) | transfection (GFP fluorescence) (A10 cells [1]; 15 micrograms per milliliter in native type I collagen, 24 h after transfection) | transfection (GFP fluorescence) (A10 cells [1]; 50 micrograms per milliliter in native type I collagen, 24 h after transfection) | transfection (GFP expression), time dependence (A10 cells [2]; added immediately after lipofection) | transfection relative to control cells (A10 cells [2]; overnight exposure) | transfection relative to control cells (A10 cells [2]; thirty minute exposure)
Tenascin C: extracellular matrix protein abundantly expressed within remodeling tissues; added to native type I collagen | normal cell morphology | dose-dependent increase in transfection | increased transfection | highest degree of transfection |  |  | 
C=C1[C@@H](C)[C@H]2[C@H](Cc3ccccc3)NC(=O)[C@]23[C@H](OC(C)=O)/C=C/[C@@](C)(O)C(=O)[C@@H](C)C/C=C/[C@H]3[C@@H]1O [cytochalasin D] |  |  |  |  | time-dependent increase in transfection | notably higher amount of transfection | increased transfection
